Source: PubChem BioAssay (NCI)
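Exposure lasted 48 hours, with cells grown in 96-well plates and compounds tested at five concentrations. Abbreviation: GI50, concentration required for 50% inhibition of growth. TGI denotes the concentration required for complete inhibition of growth.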

Assays:
Assay in all cases: NCI tumour cell line growth inhibition, 48 h
[1] = system: BT-549 breast
[2] = system: RXF 393 renal
[3] = system: HT29 colon
[4] = system: SK-MEL-5 melanoma
[5] = system: OVCAR-3 ovarian
[6] = system: SF-295 CNS
[7] = system: MOLT-4 leukemia
[8] = system: LOX IMVI melanoma
[9] = system: M14 melanoma
[10] = system: KM12 colon
[11] = system: HCC-2998 colon
[12] = system: MDA-MB-435
[13] = system: NCI-H460 lung
[14] = system: SNB-19 CNS
[15] = system: HL-60(TB) leukemia
[16] = system: 786-0 renal
[17] = system: HCT-116 colon
[18] = system: SN12C renal
[19] = system: SK-MEL-2 melanoma
[20] = system: SK-OV-3 ovarian
[21] = system: MALME-3M melanoma
[22] = system: UACC-62 melanoma
[23] = system: MDA-MB-231 breast
[24] = system: SNB-75 CNS
[25] = system: COLO 205 colon
[26] = system: A498 renal
[27] = system: A549 NSCLC
[28] = system: NCI-H226 lung
[29] = system: HCT-15 colon
[30] = system: OVCAR-8 ovarian
[31] = system: U251 CNS
[32] = system: EKVX NSCLC
[33] = system: RPMI-8226 leukemia
[34] = system: SK-MEL-28 melanoma
[35] = system: OVCAR-5 ovarian
[36] = system: TK-10 renal
[37] = system: K-562 leukemia
[38] = system: SW-620 colon
[39] = system: OVCAR-4 ovarian
[40] = system: SR leukemia
[41] = system: NCI/ADR-RES ovarian
[42] = system: ACHN renal
[43] = system: SF-268 CNS
[44] = system: UO-31 renal
[45] = system: PC-3 prostate
[46] = system: NCI-H23 lung
[47] = system: CAKI-1 renal
[48] = system: HOP-92 NSCLC
[49] = system: IGROV1 ovarian
[50] = system: UACC-257 melanoma
[51] = system: NCI-H522 lung
[52] = system: DU-145 prostate
[53] = system: HS 578T breast
[54] = system: MCF7 breast
[55] = system: HOP-62 NSCLC
[56] = system: SF-539 CNS
[57] = system: CCRF-CEM leukemia
[58] = system: T-47D breast

SMILES: Fc1ccc(-c2c(-c3ccncc3)nc3n2CCS3)cc1
- GI50 [1]: > 25 µM
- TGI [1]: > 25 µM
- GI50 [2]: > 12.9 µM
- TGI [2]: > 25 µM
- GI50 [3]: > 25 µM
- TGI [3]: > 25 µM
- GI50 [4]: > 25 µM
- TGI [4]: > 25 µM
- GI50 [5]: > 25 µM
- TGI [5]: > 25 µM
- GI50 [6]: > 25 µM
- TGI [6]: > 25 µM
- GI50 [7]: > 25 µM
- TGI [7]: > 25 µM
- GI50 [8]: > 25 µM
- TGI [8]: > 25 µM
- GI50 [9]: > 25 µM
- TGI [9]: > 25 µM
- GI50 [10]: > 25 µM
- TGI [10]: > 25 µM
- GI50 [11]: > 25 µM
- TGI [11]: > 25 µM
- GI50 [12]: > 25 µM
- TGI [12]: > 25 µM
- GI50 [13]: > 25 µM
- TGI [13]: > 25 µM
- GI50 [14]: > 25 µM
- TGI [14]: > 25 µM
- GI50 [15]: > 25 µM
- TGI [15]: > 25 µM
- GI50 [16]: > 25 µM
- TGI [16]: > 25 µM
- GI50 [17]: > 25 µM
- TGI [17]: > 25 µM
- GI50 [18]: > 25 µM
- TGI [18]: > 25 µM
- GI50 [19]: > 25 µM
- TGI [19]: > 25 µM
- GI50 [20]: > 25 µM
- TGI [20]: > 25 µM
- GI50 [21]: > 25 µM
- TGI [21]: > 25 µM
- GI50 [22]: > 25 µM
- TGI [22]: > 25 µM
- GI50 [23]: > 25 µM
- TGI [23]: > 25 µM
- GI50 [24]: > 25 µM
- TGI [24]: > 25 µM
- GI50 [25]: > 25 µM
- TGI [25]: > 25 µM
- GI50 [26]: > 15.6 µM
- TGI [26]: > 25 µM
- GI50 [27]: > 25 µM
- TGI [27]: > 25 µM
- GI50 [28]: > 25 µM
- TGI [28]: > 25 µM
- GI50 [29]: > 25 µM
- TGI [29]: > 25 µM
- GI50 [30]: > 25 µM
- TGI [30]: > 25 µM
- GI50 [31]: > 25 µM
- TGI [31]: > 25 µM
- GI50 [32]: > 25 µM
- TGI [32]: > 25 µM
- GI50 [33]: > 25 µM
- TGI [33]: > 25 µM
- GI50 [34]: > 25 µM
- TGI [34]: > 25 µM
- GI50 [35]: > 25 µM
- TGI [35]: > 25 µM
- GI50 [36]: > 25 µM
- TGI [36]: > 25 µM
- GI50 [37]: > 25 µM
- TGI [37]: > 25 µM
- GI50 [38]: > 25 µM
- TGI [38]: > 25 µM
- GI50 [39]: > 25 µM
- TGI [39]: > 25 µM
- GI50 [40]: > 25 µM
- TGI [40]: > 25 µM
- GI50 [41]: > 25 µM
- TGI [41]: > 25 µM
- GI50 [42]: > 25 µM
- TGI [42]: > 25 µM
- GI50 [43]: > 25 µM
- TGI [43]: > 25 µM
- GI50 [44]: > 25 µM
- TGI [44]: > 25 µM
- GI50 [45]: > 25 µM
- TGI [45]: > 25 µM
- GI50 [46]: > 25 µM
- TGI [46]: > 25 µM
- GI50 [47]: > 25 µM
- TGI [47]: > 25 µM
- GI50 [48]: > 16.9 µM
- TGI [48]: > 25 µM
- GI50 [49]: > 25 µM
- TGI [49]: > 25 µM
- GI50 [50]: > 25 µM
- TGI [50]: > 25 µM
- GI50 [51]: > 25 µM
- TGI [51]: > 25 µM
- GI50 [52]: > 25 µM
- TGI [52]: > 25 µM
- GI50 [53]: > 25 µM
- TGI [53]: > 25 µM
- GI50 [54]: > 25 µM
- TGI [54]: > 25 µM
- GI50 [55]: > 25 µM
- TGI [55]: > 25 µM
- GI50 [56]: > 25 µM
- TGI [56]: > 25 µM
- GI50 [57]: > 25 µM
- TGI [57]: > 25 µM
- GI50 [58]: > 25 µM
- TGI [58]: > 25 µM

SMILES: CC(=O)Nc1ccc2c3c(cc(O)c2c1)N(C(=O)CCCC(=O)N1CC(CCl)c2c1cc(O)c1cc(NC(C)=O)ccc21)CC3CCl (centres undefined)
- TGI [1]: 0.306 µM
- TGI [2]: < 0.01 µM
- TGI [5]: 0.0262 µM
- TGI [8]: > 100 µM
- TGI [9]: 0.0175 µM
- TGI [10]: 11.6 µM
- TGI [12]: 0.019 µM
- TGI [13]: > 100 µM
- TGI [15]: 0.0153 µM
- TGI [16]: 0.195 µM
- TGI [18]: > 100 µM
- TGI [19]: < 0.0152 µM
- TGI [20]: > 24.6 µM
- TGI [21]: 0.0318 µM
- TGI [22]: 0.0173 µM
- TGI [23]: < 0.01 µM
- TGI [24]: < 0.0262 µM
- TGI [25]: 0.0215 µM
- TGI [29]: 11.5 µM
- TGI [30]: > 100 µM
- TGI [31]: < 0.0139 µM
- TGI [32]: 0.0925 µM
- TGI [33]: 0.0182 µM
- TGI [34]: > 100 µM
- TGI [35]: 0.276 µM
- TGI [36]: 0.057 µM
- TGI [37]: > 100 µM
- TGI [38]: > 100 µM
- TGI [39]: 0.64 µM
- TGI [40]: < 0.01 µM
- TGI [41]: > 100 µM
- TGI [42]: < 0.0112 µM
- TGI [44]: 0.0604 µM
- TGI [45]: 0.421 µM
- TGI [46]: 0.0325 µM
- TGI [47]: 0.183 µM
- TGI [49]: > 100 µM
- TGI [51]: 0.0212 µM
- TGI [52]: < 0.01 µM
- TGI [55]: 0.0596 µM
- TGI [56]: 0.0964 µM
- TGI [57]: < 0.01 µM
- TGI [58]: < 0.01 µM
